The assay has as its system potato leafhopper (Empoasca fabae Harris). Description: Test D: control of potato leafhopper on bean plant, contact and/or systemic. In kind it is in vivo. As to conditions: sprayed at 50 ppm, 18 to 21 day old adults on Longio bean plant, 6 days, 19-21° C., 50-70% relative humidity, read-out: pest control: mortality. The method, then: Test compounds were formulated using a solution containing 10% acetone, 90% water and 300 ppm X-77™ Spreader Lo-Foam Formula non-ionic surfactant containing alkylarylpolyoxyethylene, free fatty acids, glycols and isopropanol (Loveland Industries, Inc. Greeley, Colo., USA). The formulated compounds were applied in 1 mL of liquid through a SUJ2 atomizer nozzle with ⅛ JJ custom body (Spraying Systems Co. Wheaton, Ill., USA) positioned 1.27 cm (0.5 inches) above the top of each test unit. All experimental compounds in these tests were sprayed at 250 ppm replicated three times. After spraying of the formulated test compound, each test unit was allowed to dry for 1 h and then a black, screened cap was placed on top. The test units were held for 6 days in a growth chamber at 25° C. and 70% relative humidity. Plant feeding damage was then visually assessed based on foliage consumed.
For evaluating control of potato leafhopper (Empoasca fabae Harris) through contact and/or systemic means, the test unit consisted of a small open container with a 5-6-day old Longio bean plant (primary leaves emerged) inside. White sand was added to the top of the soil and one of the primary leaves was excised prior to application. […] Each test unit was then visually assessed for insect mortality.

Structures are written as SMILES. A value given as a limit tells only on which side of the number the result lay.

One may read the mortality as the share of the test organisms that died.

For the molecule `O=C(NCc1ccccn1)c1cnc(C2=NOC(c3cc(Cl)cc(Cl)c3)(C(F)(F)F)C2)nc1C(F)(F)F` (centres unmarked) [Compound 7, 2-[5-(3,5-dichlorophenyl)-4,5-dihydro-5-(trifluoromethyl)-3-isoxazolyl]-N-(2-pyridinylmethyl)-4-(trifluoromethyl)-5-pyrimidinecarboxamide], the mortality at 50 ppm is ≥ 80%.

For `O=C(NCC(F)(F)F)c1cnc(C2=NOC(c3cc(Cl)cc(Cl)c3)(C(F)(F)F)C2)nc1C(F)(F)F` (centres unmarked) [Compound 10, 2-[5-(3,5-dichlorophenyl)-4,5-dihydro-5-(trifluoromethyl)-3-isoxazolyl]-N-(2,2,2-trifluoroethyl)-4-(trifluoromethyl)-5-pyrimidinecarboxamide], the mortality at 50 ppm is ≥ 80%.

For the origin of these results see patent publication US20090143410A1, “Isoxazolines for Controlling Invertebrate Pests” (priority 2005, published 2009).
